Article PMC3942692, “Mitochondrial FAD-linked Glycerol-3-phosphate Dehydrogenase: A Target for Cancer Therapeutics” (Pharmaceuticals, 2014)

Target: T1, GPD2 (mitochondrial glycerol-3-phosphate dehydrogenase) (Homo sapiens, UniProt P43304)
T1 construct: aa 43-727 (mitochondrial transit peptide removed), N-terminal Strep-tag II, expressed in E. coli GJ1158, Strep-Tactin purified; cDNA from PC-3 cells; EC 1.1.5.3
T1 sequence (P43304 43-727): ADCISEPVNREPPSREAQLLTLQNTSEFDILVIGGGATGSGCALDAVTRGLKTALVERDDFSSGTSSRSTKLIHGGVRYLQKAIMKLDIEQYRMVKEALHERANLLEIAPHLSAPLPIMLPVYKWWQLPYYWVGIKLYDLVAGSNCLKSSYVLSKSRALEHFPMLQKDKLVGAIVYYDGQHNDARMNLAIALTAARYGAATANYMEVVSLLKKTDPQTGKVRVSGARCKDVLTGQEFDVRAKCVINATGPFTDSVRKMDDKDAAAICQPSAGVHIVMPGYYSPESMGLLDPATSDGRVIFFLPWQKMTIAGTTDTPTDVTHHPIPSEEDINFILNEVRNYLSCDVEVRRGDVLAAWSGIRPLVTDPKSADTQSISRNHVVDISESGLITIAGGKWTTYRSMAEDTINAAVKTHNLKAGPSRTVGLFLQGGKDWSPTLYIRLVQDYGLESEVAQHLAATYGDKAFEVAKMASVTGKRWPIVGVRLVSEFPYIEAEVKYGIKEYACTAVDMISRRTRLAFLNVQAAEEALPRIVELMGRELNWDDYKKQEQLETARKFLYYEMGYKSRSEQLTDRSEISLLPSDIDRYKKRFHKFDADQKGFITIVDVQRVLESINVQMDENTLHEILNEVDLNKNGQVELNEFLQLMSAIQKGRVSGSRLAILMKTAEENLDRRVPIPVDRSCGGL
Assay: GPD2 oxidoreductase, resazurin reduction fluorescence
Assay type: biochemical
Conditions: 30 mM glycerol-3-phosphate
Source text: GPD2 oxidoreductase, resazurin reduction fluorescence on GPD2 (mitochondrial glycerol-3-phosphate dehydrogenase) | six GPD2 activity inhibitors selected for follow-up analysis are shown

Compound | EC50
CCOC(=O)c1ccc(-n2sccc2=O)cc1 [KM04416] | 1.23 ± 0.54 µM
RH02211 | 28 ± 13.9 µM
